Experimental data published in patent publication US5270334A, “4-methoxy-5-methyl-pyran-3-ol natural products and derivatives thereof” (E. R. Squibb & Sons, Inc., priority 1992, dated 1993).
Converted amounts (≈) assume the structure as drawn. Read-outs that look alike come from different tables or passages of the source.

Experiments:
Candida albicans [1] = assay: agar diffusion assay with yeasts (zone of inhibition); type: cell-based
Method: (§1) In addition to M.I.C. determinations, the following methodology was used to determine the activity of the compounds of this invention against yeasts. Fresh F-4 broth cultures of the test organisms were made from frozen vials. The broth cultures were incubated at 30° C. for 18 to 24 hours at which time the average cell count was assumed to be 5×10^7 CFU per ml. They were then used to inoculate flasks containing 300 ml of F-4 agar that had been melted and cooled to 48° C. in a temperature-controlled water bath. The inoculum consisted of 1.7 ml to give an inoculum level of about 2.8×10^5 CFU per ml. 25 ml of the inoculated agar was then poured into 150×15mm sterile Petri dishes and allowed to harden.
(§2) The medium was sterilized at 121° C. for 15 minutes at 15 psi.
(§3) F-4 agar has the same composition as the broth but with the addition of 15 g agar per liter.
(§4) Cellulose discs, 6.35 mm diameter, from Schleicher & Schuell, Inc., Keene, N.H., were charged with 10 μl of a solution composed of 1 mg/ml of lanomycin or scopularin in methanol. The discs were then placed on the surface of the inoculated agar plates of the test yeast strains, and the plates incubated at 30° C. for 18 to 24 hours. At that time, the diameter of the zones of inhibition was measured.

Candida glabrata [2] = assay: as above; type: cell-based; conditions: Nakaseomyces glabratus, SC9342; Candida glabrata SC 9342; disc with 10 μl of 1 mg/ml; read-out: Zone diameter
Method: as §1, §2, §3, §4

Candida krusei [3] = assay: as above; type: cell-based; conditions: Pichia kudriavzevii, SC2969; Candida krusei SC 2969; disc with 10 μl of 1 mg/ml; read-out: Zone diameter
Method: as §1, §2, §3, §4

Candida parakrusei [4] = assay: as above; type: cell-based
Method: as §1, §2, §3, §4

Candida quillermondi = assay: as above; type: cell-based
Method: as §1, §2, §3, §4

Candida tropicalis [5] = assay: as above; type: cell-based
Method: as §1, §2, §3, §4

Cryptococcus neoformis = assay: as above; type: cell-based
Method: as §1, §2, §3, §4

Saccaromyces cerevisiae = assay: as above; type: cell-based; conditions: read-out: Zone diameter
Method: as §1, §2, §3, §4

Epidermophyton floccosum = assay: Antibacterial and antifungal activity of lanomycin, agar dilution assay (Table 4); type: cell-based
Method: (§5) *Minimal inhibitory concentrations were determined by agar dilution assay
(§6) **Higher value is based on hazy growth; lower value for clearly

Microsporum canis = assay: as above; type: cell-based
Method: as §5, §6

Candida albicans [6] = assay: Anticandidal activity of lanomycin, agar dilution method (Table 5); type: cell-based; conditions: for MIC: 10^4 cfu
Method: (§7) MICs were determined by the agar dilution method using a medium composed of tryptone (5 g), malt extract (3 g), glucose (10 g) and yeast extract (3 g) in 1 L distiled water; 10^4 cfu of the test organism was applied to the agar.

Candida glabrata [7] = assay: as above; type: cell-based; conditions: for MIC: Nakaseomyces glabratus, 10^4 cfu
Method: as §7

Candida guillermondii = assay: as above; type: cell-based; conditions: for MIC: 10^4 cfu
Method: as §7

Candida krusei [8] = assay: as above; type: cell-based; conditions: for MIC: Pichia kudriavzevii, 10^4 cfu
Method: as §7

Candida parakrusei [9] = assay: as above; type: cell-based; conditions: for MIC: 10^4 cfu
Method: as §7

Candida pseudotropicalis = assay: as above; type: cell-based; conditions: Kluyveromyces marxianus, SC11241; Candida pseudotropicalis SC 11241; 10^4 cfu
Method: as §7

Candida stellatoidea = assay: as above; type: cell-based; conditions: Candida albicans, SC2211; Candida stellatoidea SC 2211; 10^4 cfu
Method: as §7

Candida tropicalis [10] = assay: as above; type: cell-based; conditions: 10^4 cfu
Method: as §7

[11] = acute toxicity, intraperitoneal administration to mice; conditions: mouse, in vivo, ip, random bred Swiss Webster Female mice
yeasts and fungi = assay: activity against a variety of yeasts and fungi (general statement); type: cell-based; conditions: in words
[12] = tested on: cytochrome P450 enzymes, such as lanosterol demethylase; assay: inhibition of cytochrome P450 enzymes (general statement); type: biochemical; conditions: in words
Gram negative bacteria = assay: antibacterial activity of lanomycin; type: cell-based; conditions: in words, Table 4
Method: as §5

Gram positive bacteria = assay: antibacterial activity of lanomycin; type: cell-based; conditions: in words, Table 4
Method: as §5

Candida species = assay: antifungal activity of lanomycin; type: cell-based; conditions: in words, Table 4
Method: as §5

dermatophytes = assay: antifungal activity of lanomycin; type: cell-based; conditions: in words
Method: as §5
MICs were determined as in Table 5 except that the inoculum was 10^3 cfu.

[13] = Candida, SC2966, read-out: Zone diameter
[14] = SC2210, Candida quillermondi SC 2210, disc with 10 μl of 1 mg/ml, read-out: Zone diameter
[15] = Saccaromyces cerevisiae SGY 379, disc with 10 μl of 1 mg/ml

C/C=C/C=C/C=C(\C)[C@H]1OC[C@@H](C)[C@@H](OC)[C@@H]1OC(=O)CN (relative stereo) [Lanomycin]
zone of inhibition at 1000 µg/mL (Candida albicans [1]; SC4314, Candida albicans SC 4314, disc with 10 μl of 1 mg/ml, read-out: Zone diameter): 32 mm | zone of inhibition at 1000 µg/mL (Candida glabrata [2]): 33 mm | zone of inhibition at 1000 µg/mL (Candida krusei [3]): 12 mm | zone of inhibition at 1000 µg/mL (Candida parakrusei [4]; Candida, SC2621, read-out: Zone diameter): 27 mm | zone of inhibition at 1000 µg/mL (Candida parakrusei [4]; [13]): 12 mm | zone of inhibition at 1000 µg/mL (Candida quillermondi; Candida, SC2996, read-out: Zone diameter): 29 mm | zone of inhibition at 1000 µg/mL (Candida quillermondi; [14]): 30 mm | zone of inhibition at 1000 µg/mL (Candida tropicalis [5]; Candida tropicalis, SC2963, read-out: Zone diameter): 28 mm | zone of inhibition at 1000 µg/mL (Candida tropicalis [5]; Candida tropicalis, SC8159, read-out: Zone diameter): 29 mm | zone of inhibition at 1000 µg/mL (Cryptococcus neoformis; Cryptococcus, SC5817, read-out: Zone diameter): 21 mm | zone of inhibition at 1000 µg/mL (Saccaromyces cerevisiae; Saccaromyces cerevisiae SGY 195, disc with 10 μl of 1 mg/ml): 25 mm | zone of inhibition at 1000 µg/mL (Saccaromyces cerevisiae; [15]): 30 mm | MIC (Epidermophyton floccosum; SC9185, Epidermophyton floccosum SC 9185, higher value, based on hazy growth): 100 mg/L (≈ 323 µM) | MIC (Epidermophyton floccosum; SC9185, Epidermophyton floccosum SC 9185, lower value, clearly discernible growth): 1.6 mg/L (≈ 5.17 µM) | MIC (Microsporum canis; SC9237, Microsporum canis SC 9237, higher value, based on hazy growth): 100 mg/L (≈ 323 µM) | MIC (Microsporum canis; SC9237, Microsporum canis SC 9237, lower value, clearly discernible growth): 1.6 mg/L (≈ 5.17 µM) | MIC (Candida albicans [6]; SC5314, Candida albicans SC 5314): > 100 mg/L | MIC (Candida albicans [6]; SC9177, Candida albicans SC 9177): 100 mg/L (≈ 323 µM) | MIC (Candida albicans [6]; SC9721, Candida albicans SC 9721): 100 mg/L (≈ 323 µM) | MIC (Candida albicans [6]; SC10102, Candida albicans SC 10102): > 100 mg/L | MIC (Candida albicans [6]; SC10580, Candida albicans SC 10580): > 100 mg/L | MIC (Candida albicans [6]; SC10584, Candida albicans SC 10584): 50 mg/L (≈ 162 µM) | MIC (Candida albicans [6]; SC10585, Candida albicans SC 10585): 100 mg/L (≈ 323 µM) | MIC (Candida albicans [6]; SC11422, Candida albicans SC 11422): 100 mg/L (≈ 323 µM) | MIC (Candida albicans [6]; SC12734, Candida albicans SC 12734): > 100 mg/L | MIC (Candida albicans [6]; SC14021, Candida albicans SC 14021): > 100 mg/L | activity against the C. albicans species tested (Candida albicans [6]; in words, Table 5): active | MIC (Candida glabrata [7]; SC9342, Candida glabrata SC 9342): 0.8 mg/L (≈ 2.59 µM) | MIC (Candida glabrata [7]; SC11267, Candida glabrata SC 11267): 25 mg/L (≈ 80.8 µM) | activity against certain strains of C. glabrata (Candida glabrata [7]; in words, Table 5): good activity | MIC (Candida guillermondii; SC2210, Candida guillermondii SC 2210): 50 mg/L (≈ 162 µM) | MIC (Candida guillermondii; SC2996, Candida guillermondii SC 2996): 1.6 mg/L (≈ 5.17 µM) | activity against certain strains of C. guillermondii (Candida guillermondii; in words, Table 5): good activity | MIC (Candida krusei [8]; SC2967, Candida krusei SC 2967): 6.3 mg/L (≈ 20.4 µM) | MIC (Candida krusei [8]; SC2968, Candida krusei SC 2968): 12.5 mg/L (≈ 40.4 µM) | MIC (Candida krusei [8]; SC2969, Candida krusei SC 2969): 25 mg/L (≈ 80.8 µM) | activity against certain strains of C. krusei (Candida krusei [8]; in words, Table 5): good activity | MIC (Candida parakrusei [9]; SC2621, Candida parakrusei SC 2621): 12.5 mg/L (≈ 40.4 µM) | MIC (Candida parakrusei [9]; SC2966, Candida parakrusei SC 2966): 25 mg/L (≈ 80.8 µM) | activity against certain strains of C. parakrusei (Candida parakrusei [9]; in words, Table 5): good activity | MIC (Candida pseudotropicalis): 50 mg/L (≈ 162 µM) | MIC (Candida stellatoidea): 50 mg/L (≈ 162 µM) | MIC (Candida tropicalis [10]; SC2963, Candida tropicalis SC 2963): 25 mg/L (≈ 80.8 µM) | MIC (Candida tropicalis [10]; SC8159, Candida tropicalis SC 8159): > 100 mg/L | MIC (Candida tropicalis [10]; SC9861, Candida tropicalis SC 9861): 100 mg/L (≈ 323 µM) | MIC (Candida tropicalis [10]; SC10597, Candida tropicalis SC 10597): 100 mg/L (≈ 323 µM) | LD50 [11]: 385 mg/kg | activity against a variety of yeasts and fungi (yeasts and fungi): has activity | inhibition of cytochrome P450 enzymes, such as lanosterol demethylase [12]: inhibit | activity against Gram negative bacteria (Gram negative bacteria): not active | activity against Gram positive bacteria (Gram positive bacteria): not active | activity against some Candida species (Candida species): showed activity | activity against dermatophytes (dermatophytes; Table 4): showed activity | activity against dermatophytes (dermatophytes; Table 6): active

CCC/C=C/C=C/C=C(\C)[C@H]1OC[C@@H](C)[C@@H](OC)[C@@H]1OC(=O)CN (relative stereo) [Scopularin, (2α, 3β, 4α, 5α)-Tetrahydro-4-methoxy-5-methyl-2-(1-methyl-1,3,5-nonatrienyl)-2H-pyran-3-ol, aminoacetate ester]
zone of inhibition at 1000 µg/mL (Candida albicans [1]; Candida albicans, SC4314, read-out: Zone diameter): 37 mm | zone of inhibition at 1000 µg/mL (Candida glabrata [2]): 36 mm | zone of inhibition at 1000 µg/mL (Candida krusei [3]): 20 mm | zone of inhibition at 1000 µg/mL (Candida parakrusei [4]; [13]): 20 mm | zone of inhibition at 1000 µg/mL (Candida parakrusei [4]; SC2621, Candida parakrusei SC 2621, disc with 10 μl of 1 mg/ml, read-out: Zone diameter): 31 mm | zone of inhibition at 1000 µg/mL (Candida quillermondi; [14]): 31 mm | zone of inhibition at 1000 µg/mL (Candida quillermondi; SC2996, Candida quillermondi SC 2996, disc with 10 μl of 1 mg/ml, read-out: Zone diameter): 32 mm | zone of inhibition at 1000 µg/mL (Candida tropicalis [5]; SC2963, Candida tropicalis SC 2963, disc with 10 μl of 1 mg/ml, read-out: Zone diameter): 32 mm | zone of inhibition at 1000 µg/mL (Candida tropicalis [5]; SC8159, Candida tropicalis SC 8159, disc with 10 μl of 1 mg/ml, read-out: Zone diameter): 30 mm | zone of inhibition at 1000 µg/mL (Cryptococcus neoformis; SC5817, Cryptococcus neoformis SC 5817, disc with 10 μl of 1 mg/ml, read-out: Zone diameter): 25 mm | zone of inhibition at 1000 µg/mL (Saccaromyces cerevisiae; [15]): 30 mm | zone of inhibition at 1000 µg/mL (Saccaromyces cerevisiae): 23 mm | activity against a variety of yeasts and fungi (yeasts and fungi): has activity | inhibition of cytochrome P450 enzymes, such as lanosterol demethylase [12]: inhibit
